Source: patent US20230114728A1 (Venatorx Pharmaceuticals, Inc., priority 2019, published 2023)
Values after ≈ are worked out from the molar mass of the structure shown.

Key:
E. coli K12 PBP3 = target: T1, E. coli K12 PBP3 (Escherichia coli, UniProt P0AD68); experiment: biochemical; format: binding
T1 construct: made in house
Source text: (§1) Example I: Experimental Method for Penicillin-Binding Protein Binding Assays with Bocillin-FL Via Fluorescence Polarization
(§2) To determine the ability of boronic acid-based test PBP inhibitors to bind Penicillin Binding Proteins (PBPs), Bocillin-FL (fluorescently-labeled penicillin V; ThermoFisher Scientific) was used in a fluorescence polarization (FP) competition binding assay to assess inhibitor binding to PBP2, PBP3 or PBP4 from Escherichia coli (K12), PBP3 from Pseudomonas aeruginosa (PA01), PBP1a, PBP2 and PBP3 from Acinetobacter baumannii (ATCC 19606), and PBP2 from Neiserria gonorrheae (FA19). PBPs were cloned and purified as described previously (E. coli PBPs, King, D. T, et al., ACS Infectious Diseases 2015, 1, 175-184; P. aeruginosa PBP3, Han et. al., PNAS 2010, 107 (51), 22002-22007; A. baumannii PBPs, Penwell et. al., Antimicrob. Agents Chemother. 2015, 59 (3), 1680-1689; N. gonorrhoeae PBP2, Singh et. al., J Biol. Chem. 2019, 294 (38), 14020-14032). To establish assay conditions for competition binding, enzyme titration/saturation binding experiments were initially performed. Bocillin-FL was prepared at 0.2 μM in a buffer comprised of 50 mM Hepes (pH 8.0), 300 mM NaCl and 5% (v/v) glycerol for reactions with E. coli, P. aeruginosa and N. gonorrhoeae PBPs, and 25 mM Tris (pH 8.0), 200 mM NaCl and 10% (v/v) glycerol and 0.005% (v/v) Tween 20 for reactions with A. baumannii PBPs. Saturation binding was performed by mixing 40 μl of PBP solutions ranging in concentrations from 0-24 μM with 40 μl of the 0.2 μM Bocillin-FL solution, in individual wells of a black 384-well microplate. FP was measured immediately upon mixing (Excitation, 490 nm; Emission, 520 nm; g-factor, 0.96), using a Cytation3 (BioTek) microplate reader and measured continuously for up to 120 minutes. […] The competition binding assay (80 μl final volume) was validated using beta-lactams and PBPs at final concentrations of: 1.5 μM, E. coli PBP3; 0.75 μM, P. aeruginosa PBP3; 1 μM A. baumannii PBP1a; 2.5 μM A. baumannii PBP2; 0.2 μM A. baumannii PBP3; and […] N. gonorrhoeae PBP2. Bocillin-FL was at 0.1 μM (0.05 μM with A. baumannii PBP1a) and beta-lactam concentrations ranged from 0-1000 μM. […] Bocillin-FL was added and the FP immediately measured for up to 60 minutes (90 minutes for E. coli PBP2). […] The beta-lactam potency was reported as the concentration of beta-lactam required to reduce the amount of PBP bound-Bocillin-FL by 50% (EC50). […] Binding assays for boronic acid PBP inhibitors were performed in an identical fashion for the respective PBPs

P. aeruginosa PBP3 = target: T2, P. aeruginosa PBP3 (Pseudomonas aeruginosa, UniProt G3XD46); experiment: Bocillin-FL fluorescence polarization competition binding assay, P. aeruginosa PBP3; conditions: fluorescence polarization competition binding assay using Bocillin-FL
T2 construct: made in house
T2 sequence (G3XD46 whole entry): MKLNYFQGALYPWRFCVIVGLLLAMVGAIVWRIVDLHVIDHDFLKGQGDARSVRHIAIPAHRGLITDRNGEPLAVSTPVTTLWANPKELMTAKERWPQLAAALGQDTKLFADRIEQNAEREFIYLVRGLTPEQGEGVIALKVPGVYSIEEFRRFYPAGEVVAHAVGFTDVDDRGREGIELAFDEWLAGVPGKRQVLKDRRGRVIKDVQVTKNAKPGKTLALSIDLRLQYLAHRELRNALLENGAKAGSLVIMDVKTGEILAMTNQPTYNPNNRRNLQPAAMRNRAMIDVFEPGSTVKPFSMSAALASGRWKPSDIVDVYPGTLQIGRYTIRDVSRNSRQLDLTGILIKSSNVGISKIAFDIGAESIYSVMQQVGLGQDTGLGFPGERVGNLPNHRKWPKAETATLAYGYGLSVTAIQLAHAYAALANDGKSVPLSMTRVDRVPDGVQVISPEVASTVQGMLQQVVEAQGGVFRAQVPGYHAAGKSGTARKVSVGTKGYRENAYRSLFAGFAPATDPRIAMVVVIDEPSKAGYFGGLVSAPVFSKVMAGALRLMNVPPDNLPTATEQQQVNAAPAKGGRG
Source text: as §1, §2

A. baumannii ATCC 19606 = experiment: Broth microdilution MIC in CAMHB; format: cell-based; conditions: Acinetobacter baumannii, ATCC19606; MHB; read-out: Minimum Inhibitory Concentration, A. baumannii ATCC 19606
Procedure: (§3) Example III: In Vitro Antibacterial Assays
(§4) To determine the ability of test compounds to inhibit the growth of bacterial strains, classic cell based broth microdilution minimum inhibitory concentration (MIC) assays were employed. MIC assays are performed according to CLSI methods except where otherwise noted (CLSI, 2018 and CLSI, 2019). The reference type strain E. coli ATCC 25922; the wild-type parent strain E. coli AG100; the hyper-permeable E. coli 901C and E. coli D22; and the E. coli AG100A strain lacking the acrAB efflux pump encoding genes were used to determine the ability of the PBP inhibitors to penetrate the outer membrane of gram-negative bacteria and inhibit bacterial growth. […] The P. aeruginosa ATCC 27853 and A. baumannii ATCC 19606, along with the hyper-permeable P. aeruginosa ATCC 35151 and an engineered efflux pump-compromised strain of P. aeruginosa (ΔmexAB-oprM) were used to determine the ability of PBP inhibitors to penetrate the outer membrane of P. aeruginosa and A. baumannii and assess antibacterial activity against these important gram-negative organisms.
(§5) Briefly, cryo-preserved bacterial cultures of challenge strains are streaked for isolation on appropriate agar medium, in this case cation-adjusted Mueller Hinton agar. Following incubation to allow growth of the colonies, plates are sealed with parafilm and stored refrigerated for up to two weeks. For preparation of assay inoculum and to ensure low variability, at least 5 colonies are picked from the agar plates with an inoculating loop and aseptically transferred to a culture tube containing 3 mL of cation-adjusted Mueller Hinton broth (CAMHB). The broth culture is grown for 3-5 hours at 37° C. with shaking at 200 rpm. Meanwhile, 2-fold serial dilutions of test compounds are conducted in a 96-well plate with a final volume of 75 μL per well at 2-fold the final desired concentration. After the dilution plates are set up the growing cultures are then diluted in a cuvette containing CAMHB and the optical density is measured at 600 nm. The inoculum is diluted such that 75 μL of this culture in CAMHB results in a starting bacterial concentration of 2-8×10^5 CFU/mL when added to the dilution plates. The plates are incubated for 16-20 hours for Enterobacteriaceae and Pseudomonas and 20-24 hours for Acinetobacter at 37° C. The MIC values are read visually as the lowest concentration well with no bacterial growth.

E. coli 901C = experiment: Broth microdilution MIC in CAMHB; format: cell-based; conditions: Escherichia coli; E. coli 901C (hyper-permeable); MHB; read-out: Minimum Inhibitory Concentration, E. coli 901C
Procedure: as §3, §4, §5

E. coli AG100A = experiment: Broth microdilution MIC in CAMHB; format: cell-based; conditions: Escherichia coli, read-out: Minimum Inhibitory Concentration, E. coli AG100A
Procedure: as §3, §4, §5

E. coli AG100 = experiment: Broth microdilution MIC in CAMHB; format: cell-based; conditions: Escherichia coli; E. coli AG100 (wild-type parent); MHB; read-out: Minimum Inhibitory Concentration, E. coli AG100
Procedure: as §3, §4, §5

E. coli ATCC 25922 = experiment: Broth microdilution MIC in CAMHB; format: cell-based; conditions: Escherichia coli, ATCC25922; E. coli ATCC 25922; MHB; read-out: Minimum Inhibitory Concentration, E. coli 25922
Procedure: as §3, §4, §5

E. coli D22 = experiment: Broth microdilution MIC in CAMHB; format: cell-based; conditions: Escherichia coli; E. coli D22 (hyper-permeable); MHB; read-out: Minimum Inhibitory Concentration, E. coli D22
Procedure: as §3, §4, §5

[1] = system: K. pneumoniae 848844 producing SHV-11 and KPC-2; experiment: Broth microdilution MIC in CAMHB; format: cell-based; conditions: Klebsiella pneumoniae, read-out: Minimum Inhibitory Concentration, K. pneumoniae 848844
Procedure: as §3, §4, §5

[2] = system: K. pneumoniae SI-117 producing VIM-1; experiment: Broth microdilution MIC in CAMHB; format: cell-based; conditions: Klebsiella pneumoniae, read-out: Minimum Inhibitory Concentration, K. pneumoniae SI-117
Procedure: as §3, §4, §5

[3] = system: K. pneumoniae UMM producing SHV-5 and KPC-2; experiment: Broth microdilution MIC in CAMHB; format: cell-based; conditions: Klebsiella pneumoniae, read-out: Minimum Inhibitory Concentration, K. pneumoniae UMM
Procedure: as §3, §4, §5

[4] = system: P. aeruginosa (ΔmexAB-oprM); experiment: Broth microdilution MIC in CAMHB; format: cell-based; conditions: Pseudomonas aeruginosa, read-out: Minimum Inhibitory Concentration, P. aeruginosa ΔmexAB-OprM
Procedure: as §3, §4, §5

P. aeruginosa ATCC 27853 = experiment: Broth microdilution MIC in CAMHB; format: cell-based; conditions: Pseudomonas aeruginosa, ATCC27853; MHB; read-out: Minimum Inhibitory Concentration, P. aeruginosa ATCC 27853
Procedure: as §3, §4, §5

P. aeruginosa ATCC 35151 = experiment: Broth microdilution MIC in CAMHB; format: cell-based; conditions: Pseudomonas aeruginosa, ATCC35151; MHB; hyper-permeable strain; read-out: Minimum Inhibitory Concentration, P. aeruginosa ATCC 35151
Procedure: as §3, §4, §5

T1 sequence (P0AD68 1-577): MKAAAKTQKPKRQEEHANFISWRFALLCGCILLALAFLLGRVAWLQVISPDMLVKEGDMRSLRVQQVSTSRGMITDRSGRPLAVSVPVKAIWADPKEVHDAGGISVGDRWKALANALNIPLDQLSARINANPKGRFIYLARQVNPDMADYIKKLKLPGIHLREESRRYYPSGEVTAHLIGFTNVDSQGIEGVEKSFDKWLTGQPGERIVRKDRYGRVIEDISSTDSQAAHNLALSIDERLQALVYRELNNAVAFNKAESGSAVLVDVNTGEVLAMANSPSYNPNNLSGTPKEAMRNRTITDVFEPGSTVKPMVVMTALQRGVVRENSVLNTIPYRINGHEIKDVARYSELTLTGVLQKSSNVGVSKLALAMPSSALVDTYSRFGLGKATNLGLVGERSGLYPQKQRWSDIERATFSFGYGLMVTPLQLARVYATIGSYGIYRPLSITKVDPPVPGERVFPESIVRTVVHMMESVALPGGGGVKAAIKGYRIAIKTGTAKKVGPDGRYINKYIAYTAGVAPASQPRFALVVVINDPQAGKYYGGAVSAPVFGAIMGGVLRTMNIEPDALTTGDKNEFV

SMILES | EC50 (E. coli K12 PBP3) [µM] | P. aeruginosa PBP3 Potency (P. aeruginosa PBP3) | MIC (A. baumannii ATCC 19606) [µg/mL] | MIC (E. coli 901C) [µg/mL] | MIC (E. coli AG100A) [µg/mL] | MIC (E. coli AG100) [µg/mL] | MIC (E. coli ATCC 25922) [µg/mL] | MIC (E. coli D22) [µg/mL] | MIC [1] [µg/mL] | MIC [2] [µg/mL] | MIC [3] [µg/mL] | MIC [4] [µg/mL] | MIC (P. aeruginosa ATCC 27853) [µg/mL] | MIC (P. aeruginosa ATCC 35151) [µg/mL]
O=C(O)c1cccc2c1OB(O)[C@@H](NC(=O)[C@H](NC(=O)N1CCN(CC(F)(F)F)C(=O)C1=O)c1c(F)cc(O)cc1F)C2 (single isomer, unassigned) [Example 215] | < 30 | C (C represents a potency between 10 and 30 μM) | > 128 | < 0.25 | 2 to 4 (≈ 3.26 to 6.51 µM) | 32 to 64 (≈ 52.1 to 104 µM) | 32 to 64 (≈ 52.1 to 104 µM) | 2 to 4 (≈ 3.26 to 6.51 µM) | > 128 | 32 to 64 (≈ 52.1 to 104 µM) | 32 to 64 (≈ 52.1 to 104 µM) | 32 to 64 (≈ 52.1 to 104 µM) | > 128 | 8 to 16 (≈ 13 to 26 µM)
NS(=O)(=O)Nc1cccc([C@H](NC(=O)N2CCN(CC(F)(F)F)C(=O)C2=O)C(=O)N[C@H]2Cc3cccc(C(=O)O)c3OB2O)c1 (single isomer, unassigned) [Example 216] | 30 to 500 | C (C represents a potency between 10 and 30 μM) | > 128 | 2 to 4 (≈ 3.05 to 6.09 µM) | 32 to 64 (≈ 48.8 to 97.5 µM) | > 128 | > 128 | 8 to 16 (≈ 12.2 to 24.4 µM) | > 128 | > 128 | > 128 | 32 to 64 (≈ 48.8 to 97.5 µM) | > 128 | 8 to 16 (≈ 12.2 to 24.4 µM)
NS(=O)(=O)Nc1cccc([C@@H](NC(=O)N2CCN(CC(F)(F)F)C(=O)C2=O)C(=O)N[C@H]2Cc3cccc(C(=O)O)c3OB2O)c1 (single isomer, unassigned) [Example 217] | < 30 | D (D represents a potency <10 μM) | > 128 | 0.5 to 1 (≈ 0.762 to 1.52 µM) | 8 to 16 (≈ 12.2 to 24.4 µM) | 32 to 64 (≈ 48.8 to 97.5 µM) | 32 to 64 (≈ 48.8 to 97.5 µM) | 2 to 4 (≈ 3.05 to 6.09 µM) | > 128 | > 128 | 32 to 64 (≈ 48.8 to 97.5 µM) | 8 to 16 (≈ 12.2 to 24.4 µM) | > 128 | 2 to 4 (≈ 3.05 to 6.09 µM)
